{"source": "patent US20250057826A1", "about": "“WEEKLY REGIMEN FOR HIV” (Gilead Sciences, Inc., priority 2023, published 2025)", "key": {"[1]": {"system": "HIV-1", "test": "virologic suppression in Phase 2/3 clinical studies", "type": "in vivo, human", "settings": "at mean trough concentration of 15.5 ng/mL (IQ4)"}, "[2]": {"system": "MT-4 cells", "test": "in vitro protein-adjusted 95% effective concentration derived from MT-4 cells (inhibitory quotient 4)", "type": "cell-based", "settings": "4-fold greater than in vitro protein-adjusted 95% effective concentration from MT-4 cells"}, "[3]": {"test": "2-compartment LEN population pharmacokinetic (PopPK) model from pooled clinical PK data (IV/oral/SC LEN)", "type": "in vivo, human", "settings": "column HTE", "description": "PK data were pooled from several clinical studies in healthy participants and people with HIV-1 who received intravenous (IV)/oral/SC LEN and a 2-compartment LEN population pharmacokinetic (PopPK) model with first-order absorption and linear elimination was built to simulate various weekly dosing regimens (loading+maintenance doses) that can achieve efficacious LEN concentrations rapidly and be maintained through the dosing interval. Various scenarios including 1-3 weeks of missed oral dosing were simulated to evaluate the forgiveness window; these simulations were performed with the PopPK model incorporating variability and covariate effects. The model pharmacokinetic parameters for lenacapavir are provided in Table 1 where CL=clearance; Fpo=oral bioavailability; Fsc=SC bioavailability; GI=gastrointestinal; HTE=heavily treatment experienced; IIV=interindividual variability; Ka=absorption rate constant; Kdir=direct absorption rate constant; Ktr=transit absorption rate constant; PK=pharmacokinetic; Q=intercompartmental CL; Vc=volume of central compartment; Vp=volume of peripheral compartment."}, "[4]": {"test": "pharmacokinetics following single-dose administration of oral LEN 50-1800 mg", "type": "in vivo", "settings": "single-dose oral LEN 50-1800 mg"}}}
{"compound": "CC(C)(C#Cc1ccc(-c2ccc(Cl)c3c(NS(C)(=O)=O)nn(CC(F)(F)F)c23)c([C@H](Cc2cc(F)cc(F)c2)NC(=O)Cn2nc(C(F)(F)F)c3c2C(F)(F)[C@@H]2C[C@H]32)n1)S(C)(=O)=O", "note": "[lenacapavir, N—((S)-1-(3-(4-chloro-3-(methylsulfonamido)-1-(2,2,2-trifluoroethyl)-1H-indazol-7-yl)-6-(3-methyl-3-(methylsulfonyl)but-1-yn-1-yl)pyridin-2-yl)-2-(3,5-difluorophenyl)ethyl)-2-((3bS,4aR)-5,5-difluoro-3-(trifluoromethyl)-3b,4,4a,5-tetrahydro-1H-cyclopropa[3,4]cyclopenta[1,2-c]pyrazol-1-yl)acetamide]", "values": [{"measurement": "virologic suppression", "setting": "[1]", "value": "high rates of virologic suppression"}, {"measurement": "inhibitory quotient 4 (IQ4) mean trough concentration", "setting": "[2]", "value": 15.5, "unit": "ng/mL"}, {"measurement": "θ11: dose effect on Fpo", "setting": "[3]; PopPK covariate effect", "value": "−0.414"}, {"measurement": "θ16: HV effect on Vp", "setting": "[3]; PopPK covariate effect", "value": 1.35}, {"measurement": "θ19: pharmacoenhancer/booster effect on Fpo", "setting": "[3]; PopPK covariate effect", "value": 0.534}, {"measurement": "θ20: SC 150 mg/mL effect on Vp", "setting": "[3]; PopPK covariate effect", "value": "−0.795"}, {"measurement": "θ21: SC 150 mg/mL effect on Ktr", "setting": "[3]; PopPK covariate effect", "value": 0.433}, {"measurement": "θ10: Fsc relative to IV", "setting": "[3]; PopPK model parameter, SC bioavailability", "value": 1.02}, {"measurement": "θ6: SC Ktr", "setting": "[3]; PopPK model parameter, SC", "value": 0.00202, "unit": "h⁻¹"}, {"measurement": "θ7: SC Kdir", "setting": "[3]; PopPK model parameter, SC", "value": "1.06e-06", "unit": "s⁻¹"}, {"measurement": "θ8: SC fraction for direct absorption", "setting": "[3]; PopPK model parameter, SC", "value": 0.421}, {"measurement": "θ2: Vc", "setting": "[3]; PopPK model parameter", "value": 67.9, "unit": "L"}, {"measurement": "θ4: Vp", "setting": "[3]; PopPK model parameter", "value": 908, "unit": "L"}, {"measurement": "θ5: Q", "setting": "[3]; PopPK model parameter", "value": 41.2, "unit": "L/h"}, {"measurement": "θ9: Fpo relative to IV", "setting": "[3]; PopPK model parameter, oral bioavailability", "value": 0.0627}, {"measurement": "θ3: PO Ka", "setting": "[3]; PopPK model parameter, oral", "value": 0.0286, "unit": "h⁻¹"}, {"measurement": "σ1: residual proportion variability", "setting": "[3]; PopPK residual error", "value": 27.3, "unit": "% CV"}, {"measurement": "σ2: residual additive", "setting": "[3]; PopPK residual error", "value": 0.05, "unit": "ng/mL"}, {"measurement": "θ15: weight effect on Vc and Vp", "setting": "[3]; fixed allometric exponent", "value": 1}, {"measurement": "clearance", "setting": "[3]; human, plasma, other: pooled intravenous, oral and subcutaneous, PopPK model parameter, read-out: θ1: CL (converted)", "value": 60.3, "unit": "mL/min"}, {"measurement": "ω11: IIV on CL", "setting": "[3]; interindividual variability", "value": 43.2, "unit": "% CV"}, {"measurement": "ω22: IIV on Vc", "setting": "[3]; interindividual variability", "value": 0, "unit": "% CV"}, {"measurement": "ω33: IIV on Vp", "setting": "[3]; interindividual variability", "value": 85.4, "unit": "% CV"}, {"measurement": "ω44: IIV on Ktr", "setting": "[3]; interindividual variability", "value": 32.4, "unit": "% CV"}, {"measurement": "ω55: IIV on Ka", "setting": "[3]; interindividual variability", "value": 78.4, "unit": "% CV"}, {"measurement": "ω66: IIV on Kdir", "setting": "[3]; interindividual variability", "value": 0, "unit": "% CV"}, {"measurement": "ω77: IIV on Fsc", "setting": "[3]; interindividual variability", "value": 38.9, "unit": "% CV"}, {"measurement": "half-life", "setting": "[4]; human, plasma", "value": "10 to 13", "unit": "days"}, {"measurement": "oral LEN exposure increase with dose", "setting": "[4]", "value": "less than dose proportionally"}]}
